Data on 21 molecules can be found in patent US5786480A, “4-substituted pyrazoloquinoline derivatives” (Schering Corporation, priority 1996, dated 1998).

Values after ≈ are worked out from the molar mass of the structure shown. Bounds are passed on as bounds.

The test system of data set [1] is HSV Early Gene Expression. Description: Transient Expression Assay for Effects Against HSV Early Gene Expression (beta Galactosidase Assay, βgal). It counts as cell-based. The protocol: (§1) The compound toxicity assay (3H-LEU), Plaque Reduction Assay for HSV Antiviral Activity (Plaque), and Transient Expression Assay for Effects Against HSV Early Gene Expression (β Galactosidase Assay or βgal) were carried out as set forth in U.S. Pat. No. 5,175,151 which is hereby incorporated by reference.

The nature of data set [2]: compound toxicity assay (3H-LEU). It counts as cell-based. As for the experimental part:
as §1

Data set [3] has as its system HSV. Description: Plaque Reduction Assay for HSV Antiviral Activity (Plaque). The class given is cell-based. As for the experimental part:
as §1

The subject of a further data set is HSV-1. The note with it: Haines et al., U.S. Pat. No. 4,757,088; cited from earlier work.
A further data set has as its system HSV-2. The settings on record: Haines et al., U.S. Pat. No. 4,757,088; cited from earlier work.
The test system of data set [4] is HSV. The settings on record: humans; Haines et al.; cited from earlier work.
Data set [5] relates to herpes virus. The settings on record: mammals; Haines et al., U.S. Pat. No. 4,757,088; cited from earlier work.
Data set [6] deals with herpes virus. The note with it: addition of panthothenic acid or its alcohol and salt forms, dexpanthenol and pantothenate; Haines et al.; cited from earlier work.

With `COc1ccc2nc3[nH]nc(C)c3c(NCCOCCO)c2c1` [(1)], in data set [1], the midpoint of inhibition, the IC50, lay at 5 µg/mL (≈ 15.8 µM).

In turn, `CCCCNc1c2cc(OC)ccc2nc2[nH]nc(C)c12` [(17)] returned an IC50 in data set [1] below 3 µg/mL. Besides, the midpoint of cytotoxicity in data set [2], the CC50, lay at 3.2 µg/mL (≈ 11.3 µM).

On to `COc1ccc2nc3[nH]nc(C)c3c(NCC(=O)NCCN3CCOCC3)c2c1` [(30)], for which the values for the IC50 (in data set [1]; with HSV [3]) were 2 µg/mL (≈ 5.02 µM) and 20 µg/mL (≈ 50.2 µM), respectively.

In the case of `CCC(C)[C@H](N)C(=O)n1nc(C)c2c(Cl)c3cc(OC)ccc3nc21` (some centres unmarked) [(31)], the IC50 in data set [1] amounted to 0.2 µg/mL (≈ 0.554 µM); with HSV [3], 0.8 µg/mL (≈ 2.22 µM).

In the case of `COc1ccc2nc3[nH]nc(C)c3c(NCC(=O)NCCCN3CCCC3=O)c2c1` [(28)], the half-inhibitory concentration (IC50) in data set [1] amounted to 2 µg/mL (≈ 4.87 µM); in the data set with HSV [3], 20 µg/mL (≈ 48.7 µM).

Regarding `COc1ccc2nc3c(cc2c1)c(C)nn3C(=O)[C@@H](N)C(C)C` [(21)], the IC50 in data set [1] is 0.2 µg/mL (≈ 0.64 µM); in the data set with HSV [3] it was 20 µg/mL (≈ 64 µM).

In the case of `COc1ccc2nc3c(cc2c1)c(C)nn3C(=O)[C@H](C)N` [(22)], the IC50 (in data set [1]; in the data set on HSV [3]) was 0.2 µg/mL (≈ 0.703 µM) throughout.

With `CNCC(=O)n1nc(C)c2cc3cc(OC)ccc3nc21` [(24)], the results for the half-maximal inhibitory concentration (IC50) (in data set [1]; with HSV [3]) were 0.2 µg/mL (≈ 0.703 µM) and 2 µg/mL (≈ 7.03 µM), respectively.

In the case of `COc1ccc2nc3c(c(C)nn3C(=O)[C@@H](N)C(C)C)c(NCCN3CCOCC3)c2c1` [(23)], the 50% inhibitory concentration (IC50) worked out at 0.2 µg/mL (≈ 0.454 µM) in data set [1] and 20 µg/mL (≈ 45.4 µM) in the data set with HSV [3].

In the case of `COc1ccc2nc3c(c(C)nn3C(=O)[C@@H](C)N)c(Cl)c2c1` [(33)], the half-inhibitory concentration (IC50) in data set [1] worked out at 0.5 µg/mL (≈ 1.57 µM); in the data set on HSV [3], 0.2 µg/mL (≈ 0.627 µM).

Regarding `COc1ccc2nc3c(cc2c1)c(C)nn3C(=O)C(C)(C)N` [(25)], the IC50 stood at 0.2 µg/mL (≈ 0.67 µM) in data set [1] and 20 µg/mL (≈ 67 µM) in the data set on HSV [3].

In the case of `CCCCNc1c2cc(C)ccc2nc2[nH]nc(C)c12` [(18)], inhibition in data set [1] was half-maximal at 3 µg/mL (≈ 11.2 µM) (IC50). Moreover, it took 21.5 µg/mL (≈ 80.1 µM) to reach half-maximal cytotoxicity in data set [2] (CC50).

As for `COc1ccc2nc3[nH]nc(C)c3c(NCCCN(C)C)c2c1` [(20)], in data set [1], it took 0.8 µg/mL (≈ 2.55 µM) to reach half-maximal inhibition (IC50).

With `COc1ccc2nc3[nH]nc(C)c3c(NCC(=O)NCCN3CCCCC3)c2c1` [(29)], the half-maximal inhibitory concentration (IC50) was 6 µg/mL (≈ 15.1 µM) in data set [1] and 20 µg/mL (≈ 50.4 µM) in the data set with HSV [3].

As for `COc1ccc2nc3[nH]nc(C)c3c(NCC(=O)O)c2c1` [(27)], the IC50 in data set [1] worked out at 20 µg/mL (≈ 69.9 µM).

With `COc1ccc2nc3[nH]nc(C)c3c(NCCO)c2c1` [(3)], the IC50 in data set [1] was found to be 1.3 µg/mL (≈ 4.77 µM); in the data set on HSV [3] it was 2.3 µg/mL (≈ 8.45 µM). This molecule gave a CC50 in data set [2] of 8.2 µg/mL (≈ 30.1 µM).

Consider `COc1ccc2nc3c(c(C)nn3C(=O)[C@H](C)N)c(Cl)c2c1` [(32)], for which the IC50 in data set [1] is 1.8 µg/mL (≈ 5.65 µM); in the data set on HSV [3], 0.2 µg/mL (≈ 0.627 µM).

For `COc1ccc2nc3[nH]nc(C)c3c(NCCc3ccccn3)c2c1` [(5)], the IC50 in data set [1] was 1 µg/mL (≈ 3 µM); with HSV [3], 7.5 µg/mL (≈ 22.5 µM).

For the molecule `CCCCNc1c2cc(OC)cc(C)c2nc2[nH]nc(C)c12` [(19)], in data set [1], the IC50 is 3 µg/mL (≈ 10.1 µM). Besides, half-maximal cytotoxicity in data set [2] (CC50) was put at 21.5 µg/mL (≈ 72.1 µM).

On to `CCN(CC)CC(=O)Nc1c(C)cccc1C` [lidocaine, 2-(diethylamino)-N-(2,6-dimethylphenyl)acetamide], for which, in the data set with HSV-1, the “antiviral agent in cell culture against HSV-1” value is given as “antiviral agent in cell culture against HSV-1”. Further, in the data set on HSV-2, the “antiviral agent in cell culture against HSV-2” value was “antiviral agent in cell culture against HSV-1 and HSV-2”. Besides, in the data set with HSV [4], the “effective in the treatment of HSV oral and genital lesions” value is reported as “particularly effective”. Moreover, the “able to treat herpes virus infections” value in the data set with herpes virus [5] is on record as “able to treat herpes virus infections of mammals”. The “enhancement of antiviral activity” value with herpes virus [6] is on record as “significantly enhances”.

Regarding `COc1ccc2nc3[nH]nc(C)c3c(NCCN3CCOCC3)c2c1` [(4)], the IC50 in data set [1] worked out at 20 µg/mL (≈ 58.6 µM); with HSV [3] it was 10 µg/mL (≈ 29.3 µM). The molecule also displayed a CC50 in data set [2] of 100 µg/mL (≈ 293 µM).
